Values joined by “and” are separate entries in the source; they are usually repeats but may differ in a detail not shown here. Identical values can stand only once.
Experiments:
[1] = Photophysical properties (absorption, emission, luminescence lifetime, quantum yields) in solution; format: physicochemical
Text: L1 ligand and L1Nd^3+ complex (Example 2) both have broad absorption bands which extend over a wavelength range having values as high as 750 nm with maxima centered at ˜615 and ˜670 nm and molar absorption coefficients up to 5·10^3 M^−1 cm^−1. Upon excitation of the low energy absorption bands located on L1 and on the L1Nd^3+ complex, it is possible to observe broadband emission signals from the chromophore ligand centered at ˜690 nm with a shoulder at ˜740 nm. The complex L1Nd^3+, when excited at a wavelength of 650 nm, produces a narrow emission band with a maximum at 1064 nm which is characteristic of the electronic structure of Nd^3+ resulting from the transition ^4F3/2→^4I11/2. […] As a result, ligand L1 and complex L1Nd^3+ both have excitation and emission wavelengths included in the domain of the biological diagnostic window (FIG. 1).
The quantitative luminescence parameters (luminescence lifetime (i) and luminescence quantum yields centered on L1-(QL) and on Nd^3+-(QNd)) determined on the L1Nd^3+ complex are summarized in Table 3.1.
Relatively short life time values T (in the nanosecond range) and low QNd quantum yields have been measured for the near-infrared emission of Nd^3+ in comparison with the highest corresponding values that have been published to date. […]
The quantum yield of the emission from the ligand is lower by a ratio of 30% for the Nd^3+ complex relative to the L1 ligand. […] It is important to point out that narrow Nd^3+ emission band positions are unaffected by microenvironmental changes, which is a major advantage over the “wavelength” indocyanine green commercial fluorophore. of similar excitation (Fernandez-Fernandez, R. Manchanda, T. Lei, D. A. Carvajal, Y. Tang, S. Z. Razza Kazmi, A. J. McGoron, Comparative study of the optical and heat generation properties of IR820 and indocyanine green, Molecular imaging, 11 (2012) 99 and S. Mordon, J. M. Devoisselle, S. Soulie-Begu, T. Desmetter, Indocyanine green: Physicochemical factors affecting its fluorescence in vivo, Microvascular Research, 55 (1998) 146-152).

[2] = Photostability in solution under continuous illumination at 630 nm; format: physicochemical; conditions: 3 h continuous illumination at 630 nm; 100 μM, HEPES pH 7.5, room temperature
Text: The photostabilities of L1 and L1Nd^3+ were studied under continuous illumination at 630 nm (FIG. 2).

absorption maxima ([1]; broad absorption bands extending to 750 nm, HEPES buffer): ~615 nm and ~670 nm
QL(%) (quantum yield centered on L1) ([1]; excitation at 620 nm, emission collected 640-850 nm, 100 μM, pH = 7.5, room temperature): 0,257(5) %
broadband emission from the chromophore ligand, centre ([1]; excitation of low energy absorption bands, shoulder at ~740 nm): ~690 nm
loss of initial emission intensity [2]: ~70%
Structure (SMILES): NCCNc1ccc(NCCNC(=O)CN(CCN(CCN(CCN(CC(=O)O)CC(=O)O)CC(=O)O)CC(=O)O)CC(=O)O)c2c1C(=O)c1c(O)ccc(O)c1C2=O [Compound L1, 3-(2-((2-((4-((2-aminoethyl)amino)-5,8-di hydroxy-9,10-dioxo-9,10-dihydroanthracen-1-yl)aminoacid)ethyl)amino)-2-oxoethyl)-6,9,12-tris(carboxymethyl)-3,6,9,12-tétraazatétradécane-1,14-dioic]
